# In patent publication US4788179A, “Method of treating amyotrophic lateral sclerosis with dipeptide derivatives and pharmaceutical compositions for use therein” (Gruenenthal GmbH, priority 1984, dated 1988):
# Tests used:
# [1] = system: amyotrophic lateral sclerosis (ALS) patients; test: Clinical studies: treatment of ALS patients by infusion; assay type: in vivo, human
# Description: The surprising activity of the compounds of formula I and of medicaments containing these ingredients in the treatment of ALS patients can be seen from the following examples of effects which resulted after administration of orotyl-L-histidyl-L-prolinamide in clinical studies. This active ingredient was filled in lyophilized form in 6 mg portions in bottles, closed with rubber stoppers, also containing 12 mg mannitol.
# A patient with bulbar palsy caused by ALS was treated three times daily (at 4 hour intervals) on four consecutive days in form of short infusions (i.e. within 30 minutes) with the active ingredient. The total cumulative doses were on the first day 18 mg, on the second day 36 mg, on the third day 54 mg and on the fourth day 72 mg. The single doses for each infusion were dissolved in 100 ml of a sterile isotonic solution of sodium chloride.
# Another ALS patient, suffering for eight months from ALS, was treated in the same manner as described above. […] For instance, they became able to lift their arms above horizontal, to walk without a stick, to climb stairs without support, and they became independent in activities of everyday life (such as shaving, washing, cutting with a knife, using a fork, writing, etc.).
# Three other ALS patients, who had been ill for five, seven and twelve months, respectively, were each treated on four consecutive days three times daily with 24 mg of the active ingredient, dissolved in 5% aqueous glucose solution, by intravenous infusion, applied within 30 minutes. […] Again the observed side effects were insignificant and could be neglected.
# [2] = system: amyotrophic lateral sclerosis (ALS) patients; test: as above; assay type: in vivo, human; remark: listed apart in the source
# [3] = Example 3: three ALS patients, 24 mg three times daily, four days, intravenous infusion
structure (smiles),measurement,setting,value
NC(=O)[C@@H]1CCCN1C(=O)[C@H](Cc1c[nH]cn1)NC(=O)c1cc(=O)[nH]c(=O)[nH]1 [orotyl-L-histidyl-L-prolinamide],improvement in bulbar symptoms,"[1]; Example 1: one patient with bulbar palsy caused by ALS, short infusions (30 minutes) three times daily on four consecutive days, daily totals 18, 36, 54, 72 mg",remarkable improvements in the bulbar symptoms
same,persistence of improvement after medication ended,"[1]; Example 1: patient with bulbar palsy, four-day infusion treatment",remained for several days
same,side effects of the treatment,"[1]; Example 1: short infusions three times daily, four days, daily totals 18, 36, 54, 72 mg",insignificant
same,persistence of improvement after therapy finished,"[1]; Example 2: four days therapy, same regimen as Example 1",sustained for some days
same,improvement in muscle weakness,"[1]; Example 2: one patient suffering for eight months from ALS, same regimen as Example 1",striking improvement in muscle weakness
same,improvement in everyday motor abilities,"[1]; Example 3: three ALS patients, 24 mg three times daily on four consecutive days, intravenous infusion in 5% glucose within 30 minutes",Remarkable improvements were noted in using buttons and zippers and in the ability to walk without assistance
same,clonic reflexes,[1]; [3],changed to normal
same,observed side effects,[1]; [3],insignificant
same,tendency to become fatigued,[1]; [3],reduced
same,effect on hand musculature,"[2]; Example 4: one ALS patient with pronounced atrophy of the hand muscles, total 18 mg on one day (infusions of 6 mg at four hour intervals)",evident effect on the hand musculature
same,persistence of effect after ending of medication,[2]; Example 4: total 18 mg on one day by infusion,remained for some time
